Test results reported in patent publication US9669035B2, “Combinations comprising PDE 2 inhibitors such as 1-aryl-4-methyl-[1,2,4]triazolo-[4,3-A]]quinoxaline compounds and PDE 10 inhibitors for use in the treatment of neurological of metabolic disorders” (Janssen Pharmaceutica NV, priority 2012, dated 2017).
Structures can show the parent of a compound that is named as a salt. Where two headings read alike, the source gives them in different places.

Key:
[1] = test system: Apomorphine-induced agitation in rats; experiment: Inhibition of apomorphine-induced agitation in rats (APO); conditions: for Dose at max effect / Max effect (lowest median cumulative agitation score) / LAD (lowest active dose): SC; for Max effect (lowest median cumulative agitation score): at the dose at max effect; for LAD (lowest active dose): lowest dose at which >=67% tested animals respond
[2] = test system: Apomorphine-induced agitation in rats; experiment: Inhibition of apomorphine-induced agitation in rats in combination with MP-10; assay type: in vivo, rat; conditions: SC, MP-10 (0.63 mg/kg) + apomorphine (1.0 mg/kg) i.v.
Experimental: Inhibition of Apomorphine-induced Agitation in Rats in combination with MP-10 but the animals were simultaneously challenged with MP-10 (0.63 mg/kg) in addition to apomorphine (1.0 mg/kg) via one injection (2 ml/kg, i.v.), at a fixed time interval (standard 1 h) after s.c. or p.o. dosing of test compound or solvent. Twelve times, every 5 min, the intensity of agitation was scored 0 to 3.

[3] = test system: d-Amphetamine-induced hyperlocomotion in rats; experiment: Inhibition of d-amphetamine-induced hyperlocomotion in rats in combination with Compound A and Compound B (FIGS. 9, 10); assay type: in vivo, rat; conditions: B-1a 0.63-5.0 mg/kg s.c., -1 h
[4] = test system: Apomorphine-induced agitation in rats; experiment: Inhibition of apomorphine-induced agitation in rats in combination with Compound A and Compound B (FIGS. 4, 5); assay type: in vivo, rat; conditions: -1 h
[5] = test system: d-Amphetamine-induced hyperlocomotion in rats; experiment: d-Amphetamine-induced hyperlocomotion in rats: MP-10 or B-1a alone (FIGS. 6-8); assay type: in vivo, rat
[6] = test system: d-Amphetamine-induced hyperlocomotion in rats; experiment: d-Amphetamine-induced hyperlocomotion in rats: potentiation of the effect of MP-10; assay type: in vivo, rat; conditions: SC, d-amphetamine (1.25 mg/kg, s.c.) + MP-10 (2.5 mg/kg, s.c.)
[7] = test system: cGMP levels in the rat brain; conditions: for incr vs contr (pmol cGMP/ml) (measured): increase versus control
[8] = biological target: Rat recombinant PDE10A (rPDE10A2) (Rattus norvegicus (Rat), UniProt Q9QYJ6); experiment: In vitro assay PDE10A (SPA, 3H-cAMP); assay type: biochemical
[9] = biological target: Human recombinant PDE2A (hPDE2A) (Homo sapiens (Human), UniProt O00408); experiment: In vitro assay PDE2A (SPA, 3H-cGMP); assay type: biochemical; conditions: -log IC50 expressed in mol/L
[10] = test system: cAMP and cGMP levels in the rat brain (hippocampus and striatum); conditions: in vivo
PDE2 [11] = biological target: T1, PDE2 (Rattus norvegicus (Rat), UniProt Q01062); experiment: Potentiation of in vivo [3H]B-1a binding to PDE2 by MP-10 (ex vivo autoradiography)
[12] = test system: Apomorphine-induced agitation in rats; experiment: Apomorphine-induced agitation: MP-10 (s.c.) dose-response with co-administered B-1a (FIGS. 1-3); assay type: in vivo, rat
PDE2 [13] = biological target: T1, PDE2; conditions: rat brain sections

Sequence of Rat recombinant PDE10A (rPDE10A2) (Q9QYJ6 whole entry): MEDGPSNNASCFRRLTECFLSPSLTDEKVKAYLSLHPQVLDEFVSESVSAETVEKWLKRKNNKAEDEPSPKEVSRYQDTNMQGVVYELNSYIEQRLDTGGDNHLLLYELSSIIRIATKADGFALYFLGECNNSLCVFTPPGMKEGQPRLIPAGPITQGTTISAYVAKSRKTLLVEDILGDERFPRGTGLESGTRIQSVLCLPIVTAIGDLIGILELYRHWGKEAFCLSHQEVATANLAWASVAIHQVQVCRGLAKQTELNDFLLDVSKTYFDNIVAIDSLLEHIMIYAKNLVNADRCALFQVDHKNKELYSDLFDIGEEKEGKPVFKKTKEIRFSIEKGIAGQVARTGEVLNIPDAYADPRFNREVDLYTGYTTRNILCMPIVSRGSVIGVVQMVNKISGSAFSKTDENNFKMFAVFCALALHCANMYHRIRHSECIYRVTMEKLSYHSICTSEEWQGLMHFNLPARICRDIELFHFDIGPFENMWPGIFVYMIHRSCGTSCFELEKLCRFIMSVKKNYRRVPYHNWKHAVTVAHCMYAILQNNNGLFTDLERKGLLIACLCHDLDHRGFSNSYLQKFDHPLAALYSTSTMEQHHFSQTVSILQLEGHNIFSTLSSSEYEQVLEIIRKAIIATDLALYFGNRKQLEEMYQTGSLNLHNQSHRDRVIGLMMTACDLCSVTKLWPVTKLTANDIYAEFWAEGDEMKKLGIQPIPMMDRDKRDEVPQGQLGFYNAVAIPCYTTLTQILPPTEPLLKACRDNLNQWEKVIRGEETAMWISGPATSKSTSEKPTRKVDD
T1 sequence (Q01062 whole entry): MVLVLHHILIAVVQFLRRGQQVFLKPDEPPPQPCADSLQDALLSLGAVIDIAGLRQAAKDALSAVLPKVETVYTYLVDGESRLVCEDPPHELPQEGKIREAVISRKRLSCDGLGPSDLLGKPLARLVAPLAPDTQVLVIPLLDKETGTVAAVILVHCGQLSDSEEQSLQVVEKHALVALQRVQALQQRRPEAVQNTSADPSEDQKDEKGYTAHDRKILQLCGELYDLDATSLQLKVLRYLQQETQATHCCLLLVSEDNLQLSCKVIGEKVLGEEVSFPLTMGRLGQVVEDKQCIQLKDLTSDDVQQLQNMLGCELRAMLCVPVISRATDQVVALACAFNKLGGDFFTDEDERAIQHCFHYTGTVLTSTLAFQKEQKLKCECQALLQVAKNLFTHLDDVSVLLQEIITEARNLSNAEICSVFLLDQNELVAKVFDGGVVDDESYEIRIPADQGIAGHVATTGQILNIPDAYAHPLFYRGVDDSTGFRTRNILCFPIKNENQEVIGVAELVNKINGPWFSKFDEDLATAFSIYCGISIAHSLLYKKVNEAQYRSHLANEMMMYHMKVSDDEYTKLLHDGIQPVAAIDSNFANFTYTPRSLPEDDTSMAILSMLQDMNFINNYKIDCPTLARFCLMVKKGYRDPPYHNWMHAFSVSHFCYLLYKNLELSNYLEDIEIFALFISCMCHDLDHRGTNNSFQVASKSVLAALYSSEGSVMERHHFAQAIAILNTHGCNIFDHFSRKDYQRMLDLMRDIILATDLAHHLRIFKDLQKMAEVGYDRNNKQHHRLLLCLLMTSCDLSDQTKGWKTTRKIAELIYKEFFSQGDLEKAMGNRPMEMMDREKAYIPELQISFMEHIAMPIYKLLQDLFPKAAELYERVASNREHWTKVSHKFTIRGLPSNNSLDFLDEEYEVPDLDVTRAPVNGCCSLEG
Sequence of Human recombinant PDE2A (hPDE2A) (O00408 whole entry): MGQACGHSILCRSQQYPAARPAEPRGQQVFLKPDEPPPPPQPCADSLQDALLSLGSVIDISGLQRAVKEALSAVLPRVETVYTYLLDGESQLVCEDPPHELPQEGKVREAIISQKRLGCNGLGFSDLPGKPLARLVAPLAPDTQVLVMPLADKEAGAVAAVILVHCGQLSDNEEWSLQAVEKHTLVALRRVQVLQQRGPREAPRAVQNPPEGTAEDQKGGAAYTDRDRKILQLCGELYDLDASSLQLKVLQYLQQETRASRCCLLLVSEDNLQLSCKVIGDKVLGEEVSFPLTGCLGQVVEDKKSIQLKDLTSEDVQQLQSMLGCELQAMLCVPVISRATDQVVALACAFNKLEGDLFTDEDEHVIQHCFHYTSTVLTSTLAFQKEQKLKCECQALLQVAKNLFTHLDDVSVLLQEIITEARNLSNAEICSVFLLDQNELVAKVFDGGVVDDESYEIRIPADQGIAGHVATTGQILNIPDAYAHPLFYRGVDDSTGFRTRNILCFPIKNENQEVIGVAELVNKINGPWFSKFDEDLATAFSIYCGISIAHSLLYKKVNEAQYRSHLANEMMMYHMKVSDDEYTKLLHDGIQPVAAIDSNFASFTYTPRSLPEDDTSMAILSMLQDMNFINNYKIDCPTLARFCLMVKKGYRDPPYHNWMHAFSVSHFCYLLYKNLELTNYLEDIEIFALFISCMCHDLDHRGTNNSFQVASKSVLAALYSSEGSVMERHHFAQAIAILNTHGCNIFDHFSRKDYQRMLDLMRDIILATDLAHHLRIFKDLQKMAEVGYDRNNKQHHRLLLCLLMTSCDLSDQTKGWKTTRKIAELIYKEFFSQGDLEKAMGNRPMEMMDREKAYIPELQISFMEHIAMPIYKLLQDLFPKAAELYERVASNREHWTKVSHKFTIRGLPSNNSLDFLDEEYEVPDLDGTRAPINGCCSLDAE

## CCCCOc1cncc(-c2nnc3c(C)nc4ccc(CN5CCOCC5)cc4n23)c1 [Compound B-1a, 1-(5-Butoxypyridin-3-yl)-4-methyl-8-(morpholin-4-ylmethyl) [1,2,4]triazolo[4,3-a]quinoxaline hydrochloride]
[1]
  Dose at max effect: 40
  Max effect (lowest median cumulative agitation score): 23
  LAD (lowest active dose): >40
[1]; without MP-10, at the tested doses
  effect against apomorphine-induced agitation, administered alone: ineffective against apomorphine
[2]; Time 60, dose 0.63
  Inh. of agitation < 10 Effect (cumulative agitation score): 18
[2]; Time 60, dose 1.25
  Inh. of agitation < 10 Effect (cumulative agitation score): 10
[2]; Time 60, dose 2.5
  Inh. of agitation < 10 Effect (cumulative agitation score): 11
[2]; Time 60, dose 5
  Inh. of agitation < 10 Effect (cumulative agitation score): 6
[2]; Time 60, dose 10
  Inh. of agitation < 10 Effect (cumulative agitation score): 7
[2]; Time 60, dose 40
  Inh. of agitation < 10 Effect (cumulative agitation score): 1
[3]
  effect on d-amphetamine-induced hyperlocomotion combined with the solvent of the PDE10-is: ineffective against the d-amphetamine-induced hyperlocomotion
[3]; PDE10-i 2.5 mg/kg s.c.
  effect on d-amphetamine-induced hyperlocomotion combined with Compound A or Compound B: potentiated the effect of both PDE10-is
[4]; B-1a 5.0 mg/kg s.c., PDE10-i 2.5 mg/kg s.c.
  effect on apomorphine-induced agitation combined with Compound A or Compound B: significantly potentiated the effect of both PDE10-is
[4]; B-1a 0.63-5.0 mg/kg s.c.
  effect on apomorphine-induced agitation combined with the solvent of the PDE10-is: did not affect apomorphine-induced agitation
[5]; 40 mg/kg s.c., 1 h
  effect against d-amphetamine-induced hyperlocomotion, alone: ineffective per se
[6]; Time -60, dose 0.31
  Distance Total <2500 cm Effect: 3066 cm
[6]; Time -60, dose 0.63
  Distance Total <2500 cm Effect: 2525 cm
[6]; Time -60, dose 1.25
  Distance Total <2500 cm Effect: 1664 cm
[6]; Time -60, dose 2.5
  Distance Total <2500 cm Effect: 1659 cm
[6]; Time -60, dose 5
  Distance Total <2500 cm Effect: 1281 cm
[6]; Time -60, dose 10
  Distance Total <2500 cm Effect: 727.6 cm
[7]; 2.5 mpk
  incr vs contr (pmol cGMP/ml) (measured): 5.4 pmol cGMP/ml
[7]; 10 mpk
  incr vs contr (pmol cGMP/ml) (measured): 9.7 pmol cGMP/ml

## Cc1nc2ccc(CN3CCOCC3)cc2n2c(-c3ccccc3Cl)nnc12 [Compound B-3, 1-(2-Chlorophenyl)-4-methyl-8-(morpholin-4-ylmethyl)[1,2,4]triazolo[4,3-a]-quinoxaline]
[1]
  Dose at max effect: 5
  Max effect (lowest median cumulative agitation score): 14
  LAD (lowest active dose): 5
[8]; -log IC50 expressed in mol/L
  PIC50 PDE10: 7.47
[9]
  pIC50 PDE2: 8.64

## CCCCOc1ccc(Cl)c(-c2nnc3c(C)nc4ccc(CN(C)C)cc4n23)c1 [Compound B-11]
[8]
  PIC50 PDE10: 5.67
[2]; Time 60, dose 2.5
  Inh. of agitation < 10 Effect (cumulative agitation score): 17
[2]; Time 60, dose 10
  Inh. of agitation < 10 Effect (cumulative agitation score): 7
[6]; Time -60, dose 2.5
  Distance Total <2500 cm Effect: 3494 cm
[6]; Time -60, dose 10
  Distance Total <2500 cm Effect: 1960 cm
[10]
  Hippocampus cAMP (% of Control): 117 ± 20 % of Control
  Hippocampus cGMP (% of Control): 150 ± 42 % of Control
  Striatum cAMP (% of Control): 88 ± 12 % of Control
  Striatum cGMP (% of Control): 121 ± 20 % of Control

## CCCCOc1cncc(-c2nnc3c(C)nc4ccc(CN(C)C)cc4n23)c1 [Compound B-27]
[8]
  PIC50 PDE10: 5.03
[2]; Time 60, dose 10
  Inh. of agitation < 10 Effect (cumulative agitation score): 14
[6]; Time -60, dose 2.5
  Distance Total <2500 cm Effect: 4145 cm
[6]; Time -60, dose 10
  Distance Total <2500 cm Effect: 2500 cm
[10]
  Hippocampus cAMP (% of Control): 122 ± 10 % of Control
  Hippocampus cGMP (% of Control): 104 ± 32 % of Control
  Striatum cAMP (% of Control): 89 ± 6 % of Control
  Striatum cGMP (% of Control): 128 ± 26 % of Control

## COC(=O)[C@@H](N)CCCNC(=N)N[N+](=O)[O-] [L-NAME]
PDE2 [11]; pre-treatment
  effect of pre-treatment on potentiation of [3H]B-1a binding by MP-10: prevented the potentiation

## Cn1cc(-c2ccncc2)c(-c2ccc(OCc3ccc4ccccc4n3)cc2)n1 [MP-10, 2-{[4-(1-methyl-4-pyridin-4-yl-1H-pyrazol-3-yl)phenoxy]methyl}quinoline]
[5]; Rattus norvegicus, sc, read-out: ED50 for reducing d-amphetamine-induced hyperlocomotion to a distance <1000 cm, MP-10 (-1 h, s.c.) alone, historical data
  ED50: > 40 mg/kg
[5]; up to 40 mg/kg s.c.
  effect on d-amphetamine-induced hyperlocomotion, alone: almost never achieves values <2500 cm
[12]; MP-10 -1 h, s.c., with B-1a or solvent
  effect on apomorphine-induced agitation (median score): dose-dependently inhibited agitation
[12]; MP-10 up to 10 mg/kg, co-administered B-1a <=0.63 mg/kg
  median agitation scores <10: not obtained
PDE2 [11]; dose MP-10 0.63 mpk
  in vivo [3H]B-1a binding expressed as % of binding in vehicle-treated rats, AVG: 80%
PDE2 [11]; dose MP-10 2.5 mpk
  in vivo [3H]B-1a binding expressed as % of binding in vehicle-treated rats, AVG: 302%
PDE2 [11]; dose MP-10 10 mpk
  in vivo [3H]B-1a binding expressed as % of binding in vehicle-treated rats, AVG: 501%
PDE2 [11]; dose MP-10 40 mpk
  in vivo [3H]B-1a binding expressed as % of binding in vehicle-treated rats, AVG: 739%
[7]; 2.5 mpk
  mean nmol cGMP/ml: 8.7 nmol cGMP/ml
  incr vs contr (pmol cGMP/ml) (measured): 2.4 pmol cGMP/ml
[7]; cGMP vs vehicle, 2.5 mpk
  fold increase: 1.4

## O=P1(O)OCC2O[C@@H](n3cnc4ccccc43)[C@H](O)C2O1 (stereo partly shown) [cBIMP]
PDE2 [13]
  effect on specific binding of [3H]B-1a: increase the specific binding
